The subject of data set [1] is conditioned avoidance responses. The settings on record: rat; cited from earlier work.
Data set [2] in a line: Prediction of human pharmacokinetic parameters by single-species allometric scaling. Here is the method: The prediction of CLtotal, Vdss, and t1/2 in humans was performed using single‐species allometric scaling methods 14 with the pharmacokinetic parameters obtained from the intravenous administration of MGS0008 to rats and monkeys, unbound fraction of MGS0008 in rat, monkey, and human plasma (1.0), and body weight of rats (0.3 kg), monkeys (5 kg), and humans (60 kg).

For data set [3], the system named is phencyclidine-induced locomotor hyperactivity. The settings on record: rat, oral 3 mg/kg; cited from earlier work.
Data set [4] is described as follows: Pharmacokinetics of MGS0008 in rats (intravenous or oral). It counts as in vivo, rat. The settings on record: fasted male rats. Here is the method:
The pharmacokinetic profiles of MGS0008 and MGS0274 were investigated in fasted male Wistar rats (n = 3) and fed male cynomolgus monkeys (n = 4). Monkeys had been given 60 g of a primate diet (PS‐A; Oriental Yeast, Tokyo, Japan) one hour before administration. For intravenous administration, MGS0008 was dissolved in saline (pH7.4) and administered to rats (3 mg/kg) and monkeys (1 mg/kg). Blood samples were collected from the tail vein (rats) or the forelimb cephalic vein (monkeys) into tubes containing EDTA‐2K at 5, 15, and 30 minutes and at 1, 2, 4, 8, and 24 hours postdose for both species, and an additional sample was collected at 12 hours postdose for monkeys. Urine samples were collected until 48 hours at 24‐hour intervals (rats) or at 0‐ to 8‐hour, 8‐ to 24‐hour, and 24‐ to 48‐hour intervals (monkeys). The plasma or urine samples was mixed with acetonitrile/methanol (9:1, v/v) containing [^13C2 ^15N]MGS0008 and centrifuged. Aliquots of the supernatant were subjected to bioanalysis using LC‐MS/MS (see Table S1‐E). For oral administration, MGS0008 was dissolved in distilled water (rats) or 0.5% w/v methylcellulose 400 (monkeys) and administered to rats (3 mg/kg) and monkeys (1 mg/kg). MGS0274 besylate was suspended in 0.5% w/v methylcellulose 400 containing 0.1% v/v Tween 80 and administered to monkeys at a dose of 2.89 mg/kg (1‐mg equivalent of MGS0008/kg). Blood samples were collected from the tail vein (rats) or the forelimb cephalic vein (monkeys) into tubes containing EDTA‐2K at 30 minutes, 1, 1.5, 2, 4, 6, 8, and 24 hours postdose for rats, and 30 minutes, 1, 2, 4, 8, 12, and 24 hours postdose for monkeys. The plasma samples were mixed with acetonitrile/methanol (9:1, v/v) containing internal standards ([^13C2 ^15N]MGS0008 and MGS0039) and centrifuged. Aliquots of the supernatant were subjected to bioanalysis using LC‐MS/MS (see Tables S1‐E and F). In the study examining the tissue distribution of MGS0008 in rats (3 mg/kg), blood samples were collected from the posterior vena cava into tubes containing EDTA‐2K under isoflurane anesthesia at 1.5, 4, 6, or 24 hours postdose. Then, the animals were euthanized by exsanguination from the abdominal aorta; cerebrospinal fluid (CSF) samples were drawn from the spinal cord space in each animal. The plasma or CSF was mixed with acetonitrile/methanol (9:1, v/v) containing [^13C2 ^15N]MGS0008 and centrifuged. Aliquots of the supernatant were subjected to bioanalysis using LC‐MS/MS (see Table S1‐E).
The plasma concentration‐time profiles of MGS0008 and MGS0274 were analyzed using a non‐compartmental analysis method with pharmacokinetic analysis software Phoenix® WinNonlin® 6.2 or later (Certara, Princeton, NJ).

Setting [5] is: single-species allometric scaling from the monkey data.
The mark [6] stands for this setting: single-species allometric scaling from the rat data.
Setting [7] is: Wistar, rat, MGS0008 intravenous 3 mg/kg, plasma.
The mark [8] stands for this setting: Wistar, rat, MGS0008 oral 3 mg/kg, plasma.

These results are taken from article PMC6743422, “Preclinical disposition of MGS0274 besylate, a prodrug of a potent group II metabotropic glutamate receptor agonist MGS0008 for the treatment of schizophrenia” (Pharmacology Research & Perspectives, 2019).

Several values for one entry are separate records, joined by “and”; a condition that tells them apart may be missing. Equal entries are not always repeated. Entries after “also recorded” stand apart in the source; their conditions may differ.

As for `N[C@]1(C(=O)O)[C@H]2[C@@H](C[C@@H]1F)[C@@H]2C(=O)O` [MGS0008, (1S,2S,3S,5R,6S)‐2‐amino‐3‐fluorobicyclo[3.1.0]hexane‐2,6‐dicarboxylic acid], the conditioned avoidance responses entry in data set [1] is listed as “reduced”. Moreover, in data set [2] (setting [5]), the “predicted CLtotal in humans” value was 1.16 mL/min/kg, the “predicted Vdss in humans” value is 0.181 L/kg and the “predicted t1/2 in humans” value was 1.8 h. Further, in data set [2] (setting [6]), the “predicted CLtotal in humans” value is 2.43 mL/min/kg, the “predicted Vdss in humans” value is 0.545 L/kg and the “predicted t1/2 in humans” value was 2.6 h. The phencyclidine-induced locomotor hyperactivity entry in data set [3] is given as “inhibited; also recorded: significantly decreased”. Besides, the concentration at 24 h in data set [4] (Wistar, rat, plasma, other: intravenous or oral, MGS0008 intravenous or oral 3 mg/kg, below lower limit of quantification) was under 3 ng/mL. The clearance in data set [4] (Wistar, rat, plasma, MGS0008 intravenous 3 mg/kg, mean ± SD (n = 3), read-out: CLtotal (converted)) was 9.13 mL/min/kg. Besides, in data set [4] (Wistar, rat, plasma, MGS0008 intravenous 3 mg/kg, mean ± SD (n = 3), read-out: Vdss), the Vd turned out to be 0.545 ± 0.0939 L/kg. This compound showed a bioavailability in data set [4] (Wistar, rat, plasma, MGS0008 oral 3 mg/kg, AUC0-∞ oral / AUC0-∞ intravenous × 100) of 78.1%. Further, the CL renal in data set [4] (Wistar, rat, urine and plasma, MGS0008 intravenous 3 mg/kg) is 8.52 mL/min/kg. In data set [4] (setting [7]), this compound showed an AUC(0-inf) of 5480 ± 293 ng·h/mL and a half-life of 1.54 ± 0.06 h. In addition, in data set [4] (setting [8]), the AUC(0-inf) is 4280 ± 478 ng·h/mL, the highest level (Cmax) was 1990 ± 64.3 ng/mL, the Tmax is 1.17 ± 0.289 h and the half-life is 0.968 ± 0.031 h. Besides, in data set [4] (MGS0008 intravenous 3 mg/kg, within 48 hours, % of administered dose, 3 mg/kg), the “Urinary excretion (unchanged form)” value was 93.2% and 93.2 ± 4.69%.
